Drawing on patent US20240207422A1, “NERVE TARGETING PEPTIDE CONJUGATES AND METHODS OF USE” (Alume Biosciences, Inc., priority 2022, published 2024), this text covers Count for 109 substances.

In the first assay the test system is excised human nerve tissue. In words: Phage display selection on excised human nerve tissue (Nerve2, Nerve3), NextGen sequence counts. The assay is classed as binding. To be noted: unique sequence count (relative enrichment); Nerve2 only. Put shortly: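 Randomized parent-peptide m13 phage libraries (about 50% mutation per residue) selected on washed excised human nerve tissue over multiple rounds, washing nerve pellet with PBS. NextGen sequencing of pools after rounds 2, 3 and 4; translated peptides counted by frequency, with counts 6 or greater retained.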
For 269 (HVAWNEPHHVLLQI) [compound 269], the Count was 12.

Substance 270 (HVLWEDPYYVVRMP) [compound 270] gave a Count of 12. 271 (HVQLREHYFVVYSS) [compound 271] showed a Count of 12. As for 272 (HVSSEAPYYVLNKS) [compound 272], the Count stood at 12. 273 (LFPLDETYYVAKVS) [compound 273] showed a Count of 12. Still for that read-out and setting: for 274 (QALLEEKYTALKKS) [compound 274] the value was 12; for 275 (QFPWEQRNYDVKKY) [compound 275], 12. Still for that read-out and setting: for 276 (QIPLDARSYLLKRP) [compound 276] the value was 12. 277 (QIQREEPFYVLKLY) [compound 277] came in with a Count of 12.

278 (QLPSKASNSVQQTF) [compound 278] registered a Count of 12. In the case of 279 (QLPWEKPYYDVEVT) [compound 279], the Count was determined as 12. As for 280 (QNPGKSPYYVVHKS) [compound 280], the Count is listed as 12.

On to 281 (QVWGEVPLSGAKRF) [compound 281], for which the Count was 12. Still for that read-out and setting: for 282 (RVPSAAAYYGAKIS) [compound 282] the value was 12. Regarding 283 (VFSSDSQYLFVPNF) [compound 283], the Count stood at 12. For 284 (DRPVEVPSDFVNNS) [compound 284], the Count was found to be 11. 285 (DVLGIERYYAVKDP) [compound 285] gave a Count of 11. Substance 286 (HHPGVGPFHVVKRS) [compound 286] returned a Count of 11. 287 (HLSQYEPYDPVDKS) [compound 287] displayed a Count of 11. Take 288 (HVAWDGAYNLVQTT) [compound 288]: the Count is 11. Same read-out and setting: for 289 (HVPGQDPYDVQATY) [compound 289] the value was 11.

In turn, 290 (HVPLEGSYLDDINS) [compound 290] had a Count of 11. As to 291 (HVTLAEPHLLLGKS) [compound 291], the Count was determined as 11. The substance 292 (KFSLVHPEYYGKET) [compound 292] came in with a Count of 11.

The substance 293 (NLPGVEQYNLPNSS) [compound 293] gave a Count of 11.

294 (NVPWQVPYSVLKMP) [compound 294] registered a Count of 11. Same read-out and setting: for 295 (QFAGEVPYYFATDL) [compound 295] the value was 11; for 296 (QHPMDPTYHVVIKA) [compound 296], 11; for 297 (QILSEEPYYRVDMP) [compound 297], 11. Substance 298 (QIPLAYSNYVVNKY) [compound 298] showed a Count of 11. 299 (QITFEVPCCLVRKG) [compound 299] gave a Count of 11. Substance 300 (QLGLDKLNHLVKKS) [compound 300] had a Count of 11.

Substance 301 (QSSSVEPYYVLQNS) [compound 301] gave a Count of 11. Take 302 (QVACEQPYYNVNCS) [compound 302]: the Count was determined as 11. Take 303 (RLPEAEPYYLMTQP) [compound 303]: the Count was found to be 11. Consider 304 (RVPGERQYDALNLS) [compound 304], for which the Count turned out to be 11.

305 (YVPLQEPYYVVKQS) [compound 305]: the Count is reported as 11. Take 306 (ESALKEPHQVLKHS) [compound 306]: the Count came out at 10. 307 (HAPADQLYYPVWKP) [compound 307] registered a Count of 10. Substance 308 (HFPWEEPYHVAKRS) [compound 308] displayed a Count of 10. For the substance 309 (HFQSEEPYHIPHKH) [compound 309], the Count is reported as 10. In the case of 310 (HHPLQEPYYVVEKS) [compound 310], the Count is 10. Substance 311 (HMPGREPYYVVTTS) [compound 311] displayed a Count of 10. 312 (HVAWKGPYYVLETH) [compound 312] displayed a Count of 10. On to 313 (HVHGAPSYSVLKHS) [compound 313], for which the Count worked out at 10. Consider 314 (HVLWVEPYYVINKY) [compound 314], for which the Count turned out to be 10. Consider 315 (HVPRVDHLYVETKS) [compound 315], for which the Count stood at 10. For the substance 316 (HVPSGERYYVVKTI) [compound 316], the Count is recorded as 10. In the case of 317 (HVPYVGAYNGVKKS) [compound 317], the Count was determined as 10. 318 (HVQWEGPYYDVKKS) [compound 318] displayed a Count of 10. In turn, 319 (HVRGAELSYVLTKS) [compound 319] came in with a Count of 10. 320 (HVTWGEPYQVLNKS) [compound 320] showed a Count of 10. 321 (KLLTEAPYMFRTQA) [compound 321] yielded a Count of 10. As for 322 (KLPWQESYDIVRKS) [compound 322], the Count is listed as 10. In turn, 323 (KLQWQDPDYVVKNS) [compound 323] came in with a Count of 10. Regarding 324 (KQLGVLPDYVRKNT) [compound 324], the Count stood at 10. In the case of 325 (LAPFEERSYALKSP) [compound 325], the Count amounted to 10. Regarding 326 (LASWDEPSSVLRES) [compound 326], the Count amounted to 10. Still for that read-out and setting: for 327 (LLPPDEPYYPMKKS) [compound 327] the value was 10. Regarding 328 (NLQWEQPSYVAKDY) [compound 328], the Count is recorded as 10.

Substance 329 (NVPWSEQYNALKTS) [compound 329] displayed a Count of 10. The same measure, in the same setting: in the case of 330 (QFASSHTDYVADKS) [compound 330] it was 10. Turning to 331 (QIQWQGSYNDLNKS) [compound 331], the Count worked out at 10.

The substance 332 (QISSEEPTSLLDRP) [compound 332] came in with a Count of 10. As to 333 (QKPTGASYYGTKPS) [compound 333], the Count came to 10. In the case of 334 (QLAFDGPSPILTTS) [compound 334], the Count stood at 10.

335 (QLHWGQPYSILNKS) [compound 335]: the Count was found to be 10.

The substance 336 (QLPCEVPCYLVQYS) [compound 336] showed a Count of 10.

337 (QLPLQYRYYFVDQS) [compound 337] displayed a Count of 10. 338 (QLPWEGKYQLGKKR) [compound 338]: the Count is recorded as 10. Same read-out and setting: in the case of 339 (QLRWHEPYHVVNRY) [compound 339] it was 10; in that of 340 (QSQCAGPGSAYKKC) [compound 340], 10. With 341 (QTLAGETNSVVLKF) [compound 341], the Count worked out at 10. Same read-out and setting: for 342 (QTQCEEPCYVVKFA) [compound 342] the value was 10; for 343 (QVPSEEQFYAAVKS) [compound 343], 10. With 344 (QVPSENPFRVLKNL) [compound 344], the Count is 10. 345 (QVRYVASSDLVRIP) [compound 345]: the Count amounted to 10. The substance 346 (QVSLQEPGDVLKEF) [compound 346] registered a Count of 10.

As for 347 (QVSREEPSGVVNKP) [compound 347], the Count turned out to be 10. The substance 348 (RLPSEALYYLVKRS) [compound 348] registered a Count of 10. Substance 349 (YVPVEGIQHVVEKS) [compound 349] registered a Count of 10.

The same assay, now with this note: unique sequence count (relative enrichment); Nerve3 only.
As for 350 (HVRCEEPYCHVRKS) [compound 350], the Count is on record as 755. On the same count and under the same terms, in the case of 351 (ELPWQKRKDVMKYP) [compound 351] it was 638; in that of 352 (QMPWEVPYYVVKRS) [compound 352], 548; in that of 353 (DDIWEVPKYRPKNS) [compound 353], 475. 354 (QIASEERDNIVKKS) [compound 354] showed a Count of 462. On the same count and under the same terms, in the case of 355 (RVPWQEPYYVVLKP) [compound 355] it was 419. On to 356 (QLPGYEPYYVGTVS) [compound 356], for which the Count was 412.

In the case of 357 (RIPSVGPYGVVKTF) [compound 357], the Count was 391. 358 (QDVWAEPYYAGKQP) [compound 358] showed a Count of 390. Still for that read-out and setting: in the case of 359 (HVAWQEPRYFVKKS) [compound 359] it was 359; in that of 360 (YLFAEELAYNLTKS) [compound 360], 359; in that of 361 (QRPWEQAYFVVRST) [compound 361], 357.

For 362 (FVSREEPYYVVKKS) [compound 362], the Count amounted to 341. With 363 (DVAREKPYYDMKKS) [compound 363], the Count turned out to be 335. Turning to 364 (QFPSVGSYYVVPQS) [compound 364], the Count amounted to 331.

With 365 (HVVWESSHFVVIDS) [compound 365], the Count was 329. 366 (QLRLGDLYNVMTKE) [compound 366] had a Count of 328. Take 367 (QFQWQELLNVVKDS) [compound 367]: the Count was determined as 327. Substance 368 (HVPLQEADYVLKKF) [compound 368] registered a Count of 315.

In turn, 369 (QFPLYDPYEVMPKS) [compound 369] returned a Count of 310.

As to 370 (HFRWDEPYYIANKA) [compound 370], the Count is 300. Still for that read-out and setting: in the case of 371 (RDRHEDSKFVMNHS) [compound 371] it was 290; in that of 372 (QVPFAHPYYVVNMS) [compound 372], 288. In turn, 373 (HVRWGEPSYVLKNF) [compound 373] had a Count of 272. 374 (QGQTETHSHDAKRY) [compound 374] gave a Count of 270.

Substance 375 (QLRFEGPDNPGVQS) [compound 375] showed a Count of 269.

376 (QLPWEVPYSVVRQS) [compound 376] yielded a Count of 267. For 377 (HVPLPGPYFVLKNY) [compound 377], the Count worked out at 263.
